# Experimental data published in patent US20240325544A1, “CATIONIC LIPID FOR COVALENT MODIFICATION OF PEPTIDES” (PharmalN Corporation, priority 2023, published 2024).
# Marks after values point to notes of the source that are not given here. Bridge positions count the residues as written; N and C are the ends. Square brackets hold non-standard residues; d marks the D form. Ends that are not written are not given here. Peptide text beside a SMILES is read from it. * marks the point of attachment. Palmitoyl = CCCCCCCCCCCCCCCC(=O)*; Dab = NCC[C@H](N)C(=O)O; Dap = NC[C@H](N)C(=O)O; AEEA = NCCOCCOCC(=O)O
# T1: Recombinant human NPRB extracellular domain - human IgG1 Fc fusion (NPRB-Fc) (human, UniProt P20594 23-458)
# T1 construct: extracellular domain; Used at 50 nM in the fluorescence polarization assay; R1-T433 counts on the mature protein; also called natriuretic peptide receptor B; not shown: Human IgG1 heavy chain, amino acids E216-G446 (IMGT.org, EU numbering), Accn; P01857.2
# T1 sequence (looked up): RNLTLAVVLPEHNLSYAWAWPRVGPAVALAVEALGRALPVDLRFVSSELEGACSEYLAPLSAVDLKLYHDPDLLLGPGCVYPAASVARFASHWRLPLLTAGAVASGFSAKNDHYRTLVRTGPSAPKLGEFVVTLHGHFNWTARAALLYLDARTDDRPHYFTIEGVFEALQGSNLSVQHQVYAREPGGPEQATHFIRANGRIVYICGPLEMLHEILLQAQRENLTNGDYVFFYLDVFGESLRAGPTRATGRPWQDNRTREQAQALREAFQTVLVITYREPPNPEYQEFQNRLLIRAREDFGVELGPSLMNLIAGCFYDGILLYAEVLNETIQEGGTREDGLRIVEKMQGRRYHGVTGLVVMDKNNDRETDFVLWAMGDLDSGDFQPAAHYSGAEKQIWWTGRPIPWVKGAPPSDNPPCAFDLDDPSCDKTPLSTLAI
# B1: SEQ ID NO: 31, cationic alkyl modified CNP derivative CH3(CH2)14(C=O)-Aeea-Aeea-Aeea-Dap-Dap-GLSKGCFGLKLDRIGSQSGLGC (disulfide bond) (peptide)
# peptide: Palmitoyl-[AEEA][AEEA][AEEA][Dap][Dap]GLSKGCFGLKLDRIGSQSGLGC
# modifications: disulfide 11-27
# notes: The entry holds non-natural residues (Aeea, Dap) before the 22 residues of the CNP part
# Assays:
# cGMP = assay: Plasma cGMP after SC bolus of natriuretic peptides in CD-1 mice (pharmacodynamics, Table 3); type: in vivo; conditions: SC bolus 1.0 mg/kg (≤0.45 μmol/kg), baseline 10 +/−8 pmol/ml, n = 3-5
# In short: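 Peptides given SC in sterile water; retro-orbital blood at 2 and 6 h post-dose (two bleeds per mouse), K2EDTA plasma. Plasma cGMP by commercial immunoassay kit; ANP, BNP or CNP plasma levels by peptide-specific ELISA.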
# [1] = system: E0771 breast cancer cells; assay: Orthotopic mouse model of breast cancer using E0771 cells (FIG. 6); type: in vivo, mice; conditions: 0.3 mg/kg (0.1 μmol/kg) SC once daily, 5 days on, 2 days off, 3 cycles
# Description: Error bars represent standard error of the mean. FIG. 6A) Tumor growth kinetics of 6-week-old female C57BL/6J mice (n=10 per group) that were inoculated with E0771 breast cancer cells (250,000 cells/mouse) in the mammary gland. Starting from Day 4 post-inoculation, cationic alkyl modified CNP derivatives (SEQ ID NO: 29, 30, and 31) were administered subcutaneously at a bolus dose of 0.3 mg/kg (0.1 μmol/kg) once daily for 5 days (5 days on, 2 days off) for 3 cycles; dose days indicated by gridlines. The control group, which received only buffer, was dosed in the same manner to establish the baseline tumor growth kinetics. […] Therefore, it can be concluded that the attachment of CNP is important for the observed anti-tumor activity. Statistical analysis was based on Dunnett's test performed by using GraphPad (n=10, 10, 10, and 10; Control, SEQ ID NO: 29, SEQ ID NO: 30, and SEQ ID NO: 31) **** P<0.0001 vs Control group.
# Therefore, it can be concluded that the attachment of CNP is essential for anti-tumor activity. […] Animal care and treatment: Female C57BL/6J mice (6 weeks-old) were purchased from Kyudo (Saga, Japan) and maintained under a 12-hour light/12-hour dark cycle with free access to water and standard mouse diet (MF diet, Oriental Yeast Co., Ltd. Tokyo, Japan or PicoLab Rodent Diet 20, LabDiet Corp., St. Louis, Missouri). Implantation and drug administration: Mice were implanted with E0771 breast cancer cells (250,000 cells/mouse; Cosmo Bio Tokyo, Japan) in their left mammary gland and were randomized into groups of n=10. Starting from Day 4 post-inoculation, cationic alkyl modified CNP derivatives (SEQ ID NOs: 29, 30, and 31) were administered subcutaneously at a bolus dose of 0.3 mg/kg (0.1 μmol/kg; with a dose volume of 10 mL/kg) in sterile water for injection (Otsuka Pharmaceutical, Tokushima, Japan) once daily for 5 days (5 days on, 2 days off) for 3 cycles. The control group, which received only buffer, was dosed in the same manner to establish the baseline tumor growth kinetics. Tumor sizes were measured using calipers. Statistical analysis was based on Dunnett's test performed by using GraphPad (n=10, 10, 10, and 10; Control, SEQ ID NO: 29, SEQ ID NO: 30, and SEQ ID NO: 31) **** P<0.0001 vs Control group.
# Sprague Dawley rats [2] = assay: Dose-range finding of cationic alkyl modified CNP, subcutaneous bolus in rats (Table 2)
# Description: Animal care and treatment: Male Sprague Dawley rats aged 8 to 10 weeks (Charles River, Hollister, CA) were housed in groups of two (n=3/group) in disposable polypropylene cages with rodent cob bedding at the PharmaIN animal facility. Animals had ad libitum access to food (LabDiet Pico Rodent #5053; Animal Specialties, Woodburn, OR) and water. Temperature (68-74° F.) and humidity (30-60%) were maintained within a controlled range, and a 12-hour light/dark cycle was used. […] Animals were monitored closely during the first 4 hours following injection, then hourly throughout the rest of the day for any signs of swelling or discoloration (dilatory side effect), lethargy (side effect), ataxia (ataxia is used as a marker of toxicity). Rats were allowed a 1-week wash-out period between bolus doses. Following final observations, animals were humanely euthanized through CO2 asphyxiation.
# [3] = Plasma concentration of respective natriuretic peptide by ELISA after SC bolus in CD-1 mice (pharmacokinetics, Table 3); conditions: male, CD-1, mouse, in vivo, sc, 1 mg/kg
# Description: The test articles were formulated or dissolved in sterile water for injection on the same day of administration. […] Blood samples were collected via retro-orbital bleed at 2- and 6-hours post-injection, with two bleedings per animal at two different timepoints. The samples were collected in K2EDTA tubes, processed by centrifugation (2000×g; 15 m 4 eC within 30 minutes after collection), and the resulting plasma samples were stored at −80° C. Biochemical analysis: The plasma concentration of the respective natriuretic peptide was analyzed using commercially available ELISA kits from Phoenix Pharmaceuticals (Burlingame, CA): ANP ELISA (cat #EKE-005-06), BNP ELISA (cat #EKE-011-03), and CNP ELISA (cat #EKE-012-03). […] Plasma cGMP was analyzed using a commercially available kit from Abcam (ab133052, Waltham, MA).
# [4] = Clinically observable adverse effects of cationic alkyl moieties after subcutaneous bolus in rats (Table 1); type: in vivo, rat; conditions: male, Sprague-Dawley, rat, in vivo, sc, tested at 3.0, 5.0 or 10 μmol/kg, lethargy is considered maximum tolerated bolus dose, read-out: Lethargy* in n = 3
# In short: (§1)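 Rats given subcutaneous bolus of cationic alkyl modifier in sterile water pH 4.5-5, starting 5.0 μmol/kg, raised to 10 μmol/kg if no swelling or lowered to 3.0 μmol/kg if swelling, 1-week wash-out. Monitored for lethargy, ataxia, swelling, discoloration closely for 4 h, then hourly.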
# Sprague Dawley rats [5] = assay: as above; type: in vivo, rat; conditions: tested at 3.0, 5.0 or 10 μmol/kg; for Ataxia** in n = 3: ataxia is bolus dose limiting toxicity; for Swelling and/or Discoloration in n = 3: dose at which sign was seen
# In short: as §1
# MC38 colon cancer cells = assay: Subcutaneous mouse model of colon cancer using MC38 cells (FIG. 12); type: in vivo, mice; conditions: combination with anti-tigit Ab 5 mg/kg IP twice a week, 2 cycles
# Description: FIGS. 12A-12B. […] Error bars represent standard error of the mean. FIG. 12A) A diagram of the dose schedule for administration of immune checkpoint inhibitor (anti-tigit Ab) and SEQ ID NO: 31. FIG. 12 B) Tumor growth kinetics of 6-week-old male C57BL/6J mice (n=8-9 per group) that were subcutaneously inoculated with MC38 colon cancer cells (1,000,000 cells/mouse) in right flank. Starting from Day 4 post-inoculation, anti-tigit Ab was administered intraperitoneally at 5 mg/kg twice a week for 2 cycles; SEQ ID NO: 31 was administered subcutaneously at a bolus dose of 0.3 mg/kg (0.1 μmol/kg) once daily for 5 days (5 days on, 2 days off) for 3 cycles; or a combination of anti-tigit Ab (5 mg/kg IP twice a week; 2 cycles) and SEQ ID NO: 31 (0.3 mg/kg SC once a day for 5 days on and 2 days off; 3 cycles). The control group, which received only buffer, was dosed in the same manner as SEQ ID NO: 31 to establish the baseline tumor growth kinetics. […]
# Animal care and treatment: Male C57BL/6J mice (6 weeks-old) were purchased from Kyudo (Saga, Japan) and maintained under a 12-hour light/12-hour dark cycle with free access to water and standard mouse diet (MF diet; Oriental Yeast Co., Ltd, Tokyo Japan). […] Tumor sizes were measured using calipers on Days 4, 7, 14, and Day 22 post-inoculation. […]
# [6] = target: T1, Recombinant human NPRB extracellular …; assay: Fluorescence polarization competition: 150 nM SEQ ID NO: 31 against 5 nM CNP-F* on 50 nM human NPRB
# Description: In the presence of [SEQ ID.
# Next, 1-L volume of SEQ ID. […] The plate was incubated at room temperature for 10 min. Fluorescence polarization was then measured on Flexstation 3 (excitation wavelength: 480 nm; emission wavelength: 525 nm and cutoff at 515 nm).
molecule,measurement,setting,value
CCCCCCCCCCCCCCCC(=O)N[C@@H](Cc1ccc(O)cc1)C(=O)N[C@@H](CCC(=O)O)C(=O)NCCOCCOCC(=O)NCCOCCOCC(=O)N[C@@H](CCN)C(=O)N[C@@H](CCN)C(=O)NCC(=O)N[C@@H](CC(C)C)C(=O)N[C@@H](CO)C(=O)N[C@@H](CCCCN)C(=O)NCC(=O)N[C@H]1CSSC[C@@H](C(=O)O)NC(=O)CNC(=O)[C@H](CC(C)C)NC(=O)CNC(=O)[C@H](CO)NC(=O)[C@H](CCC(N)=O)NC(=O)[C@H](CO)NC(=O)CNC(=O)[C@H]([C@@H](C)CC)NC(=O)[C@H](CCCNC(=N)N)NC(=O)[C@H](CC(=O)O)NC(=O)[C@H](CC(C)C)NC(=O)[C@H](CCCCN)NC(=O)[C@H](CC(C)C)NC(=O)CNC(=O)[C@H](Cc2ccccc2)NC1=O [SEQ ID NO: 30] (Palmitoyl-YE[AEEA][AEEA][Dab][Dab]GLSKGCFGLKLDRIGSQSGLGC-OH; disulfide 12-28; C-terminus assumed),"Plasma concentration of cGMP, 2 hr",cGMP; 2 hr,217.30** pmol/mL
same,"Plasma concentration of cGMP, 6 hr",cGMP; 6 hr,83.85* pmol/mL
same,Tumor volume compared to the Control group,[1],significant decrease in tumor volume
same,Ataxia** in n = 3,Sprague Dawley rats [2]; up to 10 mg/kg,>10 mg/kg
same,Lethargy* in n = 3,Sprague Dawley rats [2]; up to 10 mg/kg,≥10 mg/kg
same,Swelling and/or Discoloration in n = 3,Sprague Dawley rats [2]; up to 10 mg/kg,>10 mg/kg
same,Ataxia** in n = 3,Sprague Dawley rats [2]; value in parentheses,(3.3) μmol/kg
same,Lethargy* in n = 3,Sprague Dawley rats [2]; value in parentheses,(3.3) μmol/kg
same,Swelling and/or Discoloration in n = 3,Sprague Dawley rats [2]; value in parentheses,(3.3) μmol/kg
same,level at 2 h,[3],12.6 ng/mL
same,level at 6 h,[3],1.9 ng/mL
"CCCCCCCCCCCCCCCC(=O)NCCOCCOCC(=O)NCCOCCOCC(=O)NCCOCCOCC(=O)N[C@@H](CN)C(=O)N[C@@H](CN)C(=O)O [SEQ ID NO: 14, CH3(CH2)14(C═O)-Aeea-Aeea-Aeea-Dap-Dap] ({Palmitoyl-AEEA-AEEA-AEEA}-[Dap]-[Dap]-OH; C-terminus assumed)",MTD,[4],> 10 µmol/kg
same,Ataxia** in n = 3,Sprague Dawley rats [5],>10 µmol/kg
same,Swelling and/or Discoloration in n = 3,Sprague Dawley rats [5],>10 µmol/kg
same,Tumor volume compared to the Control group,[1],did not show a significant reduction in tumor volume
"CCCCCCCCCCCCCCCC(=O)NCCOCCOCC(=O)NCCOCCOCC(=O)NCCOCCOCC(=O)N[C@H](CCCCN)C(=O)N[C@H](CCCCN)C(=O)O [SEQ ID NO: 3, CH3(CH2)14(C═O)-Aeea-Aeea-Aeea-kk]",MTD,[4],≥ 5 µmol/kg
same,Ataxia** in n = 3,Sprague Dawley rats [5],≥5 µmol/kg
same,Swelling and/or Discoloration in n = 3,Sprague Dawley rats [5],≥3 µmol/kg
same,Anti-tumor effect vs anti-tigit Ab monotherapy,MC38 colon cancer cells,outperformed the anti-tumor effect of anti-tigit Ab as a monotherapy
B1,binding result,[6],binds
